Source: ChEMBL document CHEMBL5143579, “Aulosirazoles B and C from the Cyanobacterium Nostoc sp. UIC 10771: Analogues of an Isothiazolonaphthoquinone Scaffold that Activate Nuclear Transcription Factor FOXO3a in Ovarian Cancer Cells” (J Nat Prod, 2022)
Active and inactive are the calls of the source. The rule behind the calls is not given here.

Key:
[1] = biological target: Forkhead box protein O3 (Homo sapiens) (UniProt O43524); assay: Activation of FOXO3a in human OVACAR-3 cells assessed as cytosolic localization of FOXO3a at 2 uM incubated for 3 hrs by DAPI staining based immunofluorescence assay; assay type: cell-based; conditions: OVCAR-3, filed as activator
OVCAR-3 = assay: Cytotoxicity against human OVCAR-3 cells assessed as inhibition of cell growth incubated for 72 hrs by CellTiter-Blue cell viability assay; assay type: functional, cell-based; conditions: OVCAR-3, 72 h
[2] = biological target: Forkhead box protein O3 (Homo sapiens) (UniProt O43524); assay: Activation of FOXO3a in human OVACAR-3 cells assessed as nuclear accumulation of FOXO3a at 2 uM incubated for 3 hrs by DAPI staining based immunofluorescence assay; assay type: cell-based; conditions: OVCAR-3, filed as activator
[3] = biological target: Forkhead box protein O3 (Homo sapiens) (UniProt O43524); assay: Transactivation of FOXO3a in human OVACAR-3 cells assessed as nuclear accumulation of FOXO3a at 2 uM incubated for 3 hrs by western blot analysis; assay type: cell-based; conditions: OVCAR-3, filed as activator
[4] = biological target: Forkhead box protein O3 (Homo sapiens) (UniProt O43524); assay: Transactivation of FOXO3a in human OVACAR-3 cells assessed as increase in nuclear accumulation of FOXO3a at 1 uM incubated for 24 hrs by western blot analysis; assay type: cell-based; conditions: OVCAR-3, filed as activator
[5] = biological target: Forkhead box protein O3 (Homo sapiens) (UniProt O43524); assay: Activation of FOXO3a in human OVACAR-3 cells assessed as decrease in cytosolic localization of FOXO3a at 1 uM incubated for 3 hrs by DAPI staining based immunofluorescence assay; assay type: cell-based; conditions: OVCAR-3, filed as activator
[6] = biological target: Forkhead box protein O3 (Homo sapiens) (UniProt O43524); assay: Transactivation of FOXO3a in human OVACAR-3 cells assessed as decrease in cytosolic concentration of FOXO3a at 1 uM for 3 hrs by western blot analysis; assay type: cell-based; conditions: OVCAR-3, filed as activator
[7] = biological target: Forkhead box protein O3 (Homo sapiens) (UniProt O43524); assay: Activation of FOXO3a in human OVACAR-3 cells assessed as increase in nuclear accumulation of FOXO3a at 1 uM incubated for 3 hrs by DAPI staining based immunofluorescence assay; assay type: cell-based; conditions: OVCAR-3, filed as activator

Forkhead box protein O3 (Homo sapiens), sequence (O43524 whole entry): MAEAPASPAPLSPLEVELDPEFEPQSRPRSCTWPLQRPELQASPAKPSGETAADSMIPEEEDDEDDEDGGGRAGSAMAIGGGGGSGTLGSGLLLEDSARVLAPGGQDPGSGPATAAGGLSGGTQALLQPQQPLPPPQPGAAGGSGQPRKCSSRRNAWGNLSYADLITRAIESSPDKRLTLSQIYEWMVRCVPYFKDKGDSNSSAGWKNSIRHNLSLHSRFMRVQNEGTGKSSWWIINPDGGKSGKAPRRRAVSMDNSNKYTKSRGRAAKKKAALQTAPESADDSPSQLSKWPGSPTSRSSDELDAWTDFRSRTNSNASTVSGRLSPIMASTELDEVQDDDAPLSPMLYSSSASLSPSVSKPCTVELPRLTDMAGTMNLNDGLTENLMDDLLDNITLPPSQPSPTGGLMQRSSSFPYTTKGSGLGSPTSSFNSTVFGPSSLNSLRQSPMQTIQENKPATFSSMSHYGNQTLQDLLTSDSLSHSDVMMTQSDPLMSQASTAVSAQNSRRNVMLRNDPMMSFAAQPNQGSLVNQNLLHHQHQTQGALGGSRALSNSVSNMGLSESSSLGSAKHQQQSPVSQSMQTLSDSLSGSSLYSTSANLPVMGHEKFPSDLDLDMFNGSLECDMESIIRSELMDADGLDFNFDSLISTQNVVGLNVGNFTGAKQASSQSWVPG

O=c1cc(N2CCOCC2)oc2c(-c3ccccc3)cccc12 [LY-294002]
Activity [1]: Active
IC50 (OVCAR-3): 9.19 µM
Activity [2]: Active
Activity [3]: Active

COc1nsc2c1C(=O)c1ccccc1C2=O
IC50 (OVCAR-3): 0.6 µM

COc1nsc2c1C(=O)c1c(O)cccc1C2=O
Activity [4]: Active
IC50 (OVCAR-3): 0.301 µM
Activity [5]: Active
Activity [6]: Active
Activity [7]: Active

COc1nsc2c1C(=O)c1c(O)ccc(C(=O)O)c1C2=O
IC50 (OVCAR-3): 3.03 µM
